Counter-ions that a name gives are not always drawn.
- melting point: 79.2 °C
Compound: Cc1nn(-c2cccc(CN)c2)c2c1CCN(c1ccc(-c3ccccc3CN3CC[C@H](O)C3)cc1)C2 (as salt: trifluoroacetic acid salt) [Example 100, 1-[3-Aminomethylphenyl]-3-methyl-6-[(2′-N-((3-(S)-hydroxy)pyrrolidinyl)methyl-[1,1′]-biphen-4-yl)]-1,4,5,6-tetrahydro-7H-pyrazolo-[3,4-c]-pyridin-7-one bis-trifluoroacetic acid salt]
